These results are taken from paper PMC8913746, “An open-like conformation of the sigma-1 receptor reveals its ligand entry pathway” (Nature Communications, 2022).

Numbering of substitutions follows the chain as printed. “And” between values parts separate entries of the source, which are not always exact repeats. Identical values can stand only once.

One may read the Kd as the concentration at which binding is half-saturated. Read a high Kd as lower affinity.

Series [1] concerns the target T1, xlσ1R-C179/C203 (Xenopus laevis, UniProt Q6DCU6, L179C/Y203C).
T1 construct: The gene encoding the full-length wild-type σ1R from Xenopus laevis; hemagglutinin signal peptide (N); decahistidine (His10) (N); TEV protease recognition site (N); made in house; host or cells: Pichia pastoris GS115
T1 sequence (Q6DCU6 1-221 L179C/Y203C): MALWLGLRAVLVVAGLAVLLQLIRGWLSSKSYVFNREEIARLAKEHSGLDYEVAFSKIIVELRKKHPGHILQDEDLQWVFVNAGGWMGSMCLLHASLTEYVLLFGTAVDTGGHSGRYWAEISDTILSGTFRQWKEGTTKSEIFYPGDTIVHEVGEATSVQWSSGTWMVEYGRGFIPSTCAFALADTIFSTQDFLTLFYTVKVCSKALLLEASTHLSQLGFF
As to the kind of experiment: ITC binding of PRE084 to xlσ1R-C179/C203 (disulfide oxidation / re-reduction).

Series [2] addresses T2, xlσ1R-C179 (Xenopus laevis, UniProt Q6DCU6, L179C).
T2 construct: The gene encoding the full-length wild-type σ1R from Xenopus laevis; hemagglutinin signal peptide (N); decahistidine (His10) (N); TEV protease recognition site (N); made in house; host or cells: Pichia pastoris GS115
T2 sequence (Q6DCU6 1-221 L179C): T1 sequence (Q6DCU6 1-221 L179C/Y203C) with C203Y
As to the kind of experiment: ITC binding of PRE084 to xlσ1R-C179 before/after mPEG-Mal-5K modification.

Series [3] addresses T3, xlσ1R-C203 (Xenopus laevis, UniProt Q6DCU6, Y203C).
T3 construct: The gene encoding the full-length wild-type σ1R from Xenopus laevis; hemagglutinin signal peptide (N); decahistidine (His10) (N); TEV protease recognition site (N); made in house; host or cells: Pichia pastoris GS115
T3 sequence (Q6DCU6 1-221 Y203C): T1 sequence (Q6DCU6 1-221 L179C/Y203C) with C179L
As to the kind of experiment: ITC binding of PRE084 to xlσ1R-C203 before/after mPEG-Mal-5K modification.

Series [4] deals with T4, wild-type xlσ1R (Xenopus laevis, UniProt Q6DCU6).
T4 construct: The gene encoding the full-length wild-type σ1R from Xenopus laevis; hemagglutinin signal peptide (N); decahistidine (His10) (N); TEV protease recognition site (N); made in house; host or cells: Pichia pastoris GS115
T4 sequence (Q6DCU6 1-221): T1 sequence (Q6DCU6 1-221 L179C/Y203C) with C179L, C203Y
As to the kind of experiment: ITC binding of PRE084 to wild-type xlσ1R before/after mPEG-Mal-5K modification. Particulars: for WT stoichiometry, After modification: mPEG-Mal-5K; for Kd: WT Kd.

The test system of series [5] is xls1R-C179 or xls1R-C203. As to the kind of experiment: mPEG-Mal-5K modification of xlσ1R cysteine mutants with added PRE084 (SDS-PAGE). The format is biochemical, Xenopus laevis. Particulars: 1 mM PRE084 added to dialyzed protein sample before mPEG-Mal-5K treatment. Here is the method:
Modification of wild-type and cysteine mutants of xlσ1R was performed with a bulky thiol-modifying reagent, methoxypolyethylene glycol maleimide 5000 (mPEG-Mal-5K)[33]. Briefly, the SEC-purified xlσ1R protein in the absence of β-mercaptoethanol were incubated with 1 mM mPEG-Mal-5K at room temperature for 1 h, and the modification reaction was stopped by addition of β-mercaptoethanol to a final concentration of 10 mM before another SEC purification to remove any free mPEG-Mal-5K. For the entrance blocking experiment, the modified xlσ1R-C179 or xlσ1R-C203 proteins were subjected to ITC or SDS-PAGE analysis. For the assessment of disulfide formation in xlσ1R-C179/C203, the modified sample was analyzed by SDS-PAGE. To reduce background modification and facilitate gel analysis, the only native cysteine (Cys91) was mutated to serine in all samples for the disulfide analysis. […]
would affect the modification efficiency (Response Fig. 1). However, extensive dialysis of the […]
1 to lane 5 for C179, and lane 3 to la ne 7 f o r C2 03). […]
modification efficiency (compare lane 1 to lane 2 for C179, and lane 3 to lane 4 for C203).
Therefore, it seems less likely that the ligand binding hindered mPEG -Ma l-5K modification. […]
before mPEG-Ma l-5K treatment were indicated above the gel. Protein samples were analyzed by SDS-PAGE and Coomassie blue staining. […]

Series [6] deals with T5, wild-type xls1R (Xenopus laevis, UniProt Q6DCU6).
T5 construct: The gene encoding the full-length wild-type σ1R from Xenopus laevis; hemagglutinin signal peptide (N); decahistidine (His10) (N); TEV protease recognition site (N); made in house; host or cells: Pichia pastoris GS115
T5 sequence (Q6DCU6 1-221): T1 sequence (Q6DCU6 1-221 L179C/Y203C) with C179L, C203Y
As to the kind of experiment: Resistance of wild-type xlσ1R to chymotrypsin with added PRE084 (SDS-PAGE). The format is biochemical. Particulars: 1 mM PRE084 added to dialyzed protein before chymotrypsin treatment.

Series [7] can be described thus: Dissolution of DIM-3C for crystal soaking. Particulars: for soaking xlσ1R crystals. The format is physicochemical. From the text: Finally, it is worth mentioning another structural effort that we attempted to capture an open conformation of σ1R by soaking a ligand of extended length into the xlσ1R crystals. We anticipated that the ligand would extend through the ligand entrance and cause the receptor to adopt an open state. Such an extended ligand, N^1,N^3-bis(1-((R)-3-([1,1′-biphenyl]-4-yl)butyl)-piperidin-4-yl)malonamide (DIM-3C)[21], was kindly provided by Dr. Collina and Dr. Rossino for soaking the xlσ1R crystals. […] The density was readily and best modeled with an S1RA molecule. Its morpholine ring sits between α4 and α5 and is surrounded by residues 179, 203, and Leu97, whereas the rest of the ligand remains outside of the receptor, possibly representing an entering (or exiting) pose for the ligand. Meanwhile, due to the relatively low resolution (3.80 Å) of the xlσ1RC179/C203-S1RA structure, this extra density needs to be interpreted with caution, and we used it only for supplementary discussion.

The mark [8] stands for this setting: equilibrium dissociation constant (Kd).
[9] abbreviates: ITC, Mean of repeats (source data Fig. 4e).
Where [10] appears, read: ITC, individual repeats (source data Fig. 4e).

`O=C(OCCN1CCOCC1)C1(c2ccccc2)CCCCC1` [PRE084, [2-(morpholin-4-yl)ethyl] 1-phenylcyclohexane-1-carboxylate]: the Kd was 7.81 µM and 5.08 µM and 7.24 µM in series [1] (C179/C203 Kd, After oxidation); 0.96 µM and 0.71 µM and 0.38 µM and 0.51 µM and 0.85 µM in series [1] (C179/C203 Kd, Before oxidation); 1.76 µM and 1.39 µM and 1.45 µM and 1.57 µM in series [1] (C179/C203 Kd, Re-reduction); 0.68 µM and 6.71 µM and 1.54 µM in series [1] (setting [8]); 1.91 µM and 2.01 µM and 1.93 µM and 1.97 µM in series [2] (C179 Kd, After modification); 0.972 µM and 0.99 µM and 1.09 µM and 1.04 µM in series [2] (C179 Kd, Before modification). Besides, the Kd was 1.02 µM and 1.95 µM in series [2] (setting [8]); 1.5 µM and 1.73 µM and 1.62 µM in series [3] (C203 Kd, After modification); 0.971 µM and 0.977 µM and 1.03 µM in series [3] (C203 Kd, Before modification); 1.61 µM and 0.99 µM in series [3] (setting [8]); 1.22 µM and 1.29 µM and 1.23 µM and 1.08 µM (2×) and 1.12 µM in series [4] (After modification); 1.12 µM and 1.21 µM and 0.871 µM and 1.1 µM in series [4] (Before modification). Besides, in series [3] (setting [9]), the “C203 stoichiometry, Before modification” value was determined as 0.8717. Moreover, the “change of affinity (Kd) after mPEG-Mal-5K treatment” value in series [4] is “changed little”. Besides, the “WT stoichiometry, Before modification” value was 0.8695 in series [4] (setting [9]); 0.883 and 0.874 and 0.993 and 0.728 in series [4] (setting [10]). Besides, the “WT stoichiometry, After modification” value in series [4] (setting [9]) is 0.9143; in series [4] (setting [10]), 0.933 and 0.896 and 0.874 and 1.040 and 0.883 and 0.860. The “change of stoichiometry (number of available binding sites per protomer) after mPEG-Mal-5K treatment” value in series [4] (ITC, modification of native Cys91) is “changed little”. Also, the “effect of added ligand on mPEG-Mal-5K modification efficiency” value in series [5] was “no appreciable effect”. Further, the “effect of added ligand on chymotrypsin digestion” value in series [6] is given as “no appreciable effect”.
On to `C[C@H](CCN1CCC(NC(=O)CC(=O)NC2CCN(CC[C@@H](C)c3ccc(-c4ccccc4)cc3)CC2)CC1)c1ccc(-c2ccccc2)cc1` [DIM-3C, N^1,N^3-bis(1-((R)-3-([1,1′-biphenyl]-4-yl)butyl)-piperidin-4-yl)malonamide], for which, in series [7], the solubility result is “could only be dissolved with organic solvents such as methanol and dimethyl sulfoxide”.
